Here are results for one compound from patent EP0484596A1, “Organotin compounds and anti-tumor compositions containing them” (priority 1990, dated 1992).

Assay [1] relates to MCF-7 mammary carcinoma. Nature of the assay: in vitro cell growth inhibition, PIT method, MCF-7. Format: cell-based, human. As to conditions: amount which inhibits 50% of the cell growth. The protocol:
(§1) The compounds (1), (2) and (3) as well as their starting compounds, i.e. (4), (5) and (6) respectively, [drawing 8] were tested in vitro against the following human tumor cell lines • MCF-7 mammary carcinoma • WiDr colon tumor cells
(§2) The tests were carried out according to the method of R. van Lambalgen and P. Lelieveld, The PIT Method: an automated in vitro technique for drug toxicity testing. Invest. New Drug 5, 161-165 (1987).
(§3) The ID50 values in ng/ml for the above compounds were determined, i.e. the amount which inhibits 50% of the cell growth.

The subject of assay [2] is WiDr colon tumor cells. Nature of the assay: in vitro cell growth inhibition, PIT method, WiDr. Format: cell-based, human. As to conditions: amount which inhibits 50% of the cell growth. The protocol: as §1, §2, §3

As for `N.N.[Cl][Pt][Cl]` [Cis-platin], the ID50 in assay [1] amounted to 0.85 µg/mL; in assay [2] it was 0.624 µg/mL.
